Measurements reported in patent publication US20100210616A1, “METAL COMPLEXES INCORPORATED WITHIN BIODEGRADABLE NANOPARTICLES AND THEIR USE” (THE UNIVERSITY OF AKRON, priority 2007, published 2010).

How the values were obtained:
[1] = MIC testing against panel of bacterial strains; type: cell-based; settings: panel of strains; prior to loading in nanoparticles
[2] = tested on: P. aeruginosa (PAO1, PAM57-15 and PAJG3), B. cepacia (PC783), B. multivorans (HI2229), B. cenocepacia (J2315), B. dolosa, M. tuberculosis and control E. coli …; experiment: MIC testing against panel of bacterial strains; type: cell-based; settings: prior to loading in nanoparticles; for MIC range: panel of strains
[3] = tested on: silver sensitive E. coli J53; experiment: MIC against silver sensitive E. coli J53; type: cell-based; settings: Escherichia coli
[4] = tested on: J53 containing the silver resistance plasmid pMG101; experiment: microbe, parasite or virus in culture; type: cell-based, E. coli; settings: Escherichia coli
M. tuberculosis = experiment: MIC against M. tuberculosis; type: cell-based; settings: Mycobacterium tuberculosis

| Compound | MIC90 [1] [µg/mL] | MIC range [2] [µg/mL] | antimicrobial effectiveness in MIC testing versus other more water soluble silver metal complexes [2] | MIC [3] [µg/mL] | MIC [4] [µg/mL] | MIC (M. tuberculosis) [µg/mL] |
| --- | --- | --- | --- | --- | --- | --- |
| CCCCCCN1C(Cl)=C(Cl)N(C)[CH]1[Ag][O]C(C)=O (stereo not drawn) [compound 9] | 1 | 1 to 2 | more effective | 1 | > 10 | 16000 |
| CC(=O)[O][Ag][CH]1N(C)c2c(n(C)c(=O)n(Cc3ccc4ccccc4c3)c2=O)N1C (stereo not drawn) [compound 13] | 0.8 | 0.8 to 2 | more effective | 1 | > 10 | 16000 |
